This note sets out measurements from US20130344026A1, “Dimeric Smac Mimetics” (priority 2009, published 2013).

As usually defined, the IC50 is the concentration at which inhibition is half-maximal.

One assay concerns HCC461. As to the kind of experiment: cell viability assay in HCC461, compound alone. It counts as cell-based. The following applies: HCC461, HCC461 cells, compound alone; read-out: IC50 (uM) in cell viability assay in HCC461.
`CN[C@@H](C)C(=O)N[C@H](C(=O)N1CCC[C@H]1C(=O)N[C@H](CNC(=O)[C@@H]1CC[C@](C)(C(=O)NC[C@@H](NC(=O)[C@@H]2CCCN2C(=O)[C@@H](NC(=O)[C@H](C)NC)C(C)(C)C)c2ccccc2)C1(C)C)c1ccccc1)C(C)(C)C` [Compound P3-48]: the IC50 was 0.183 µM.
For `CN[C@@H](C)C(=O)N[C@H](C(=O)N1C[C@@H](NC(=O)c2cccc(C(=O)N[C@H]3C[C@@H](C(=O)N(C)Cc4ccccc4)N(C(=O)[C@@H](NC(=O)[C@H](C)NC)C(C)(C)C)C3)c2)C[C@H]1C(=O)N(C)Cc1ccccc1)C(C)(C)C` [Compound P3-49], the IC50 was found to be 0.141 µM.
Consider `CN[C@@H](C)C(=O)N[C@H](C(=O)N1C[C@@H](NC(=O)c2cccc(C(=O)N[C@H]3C[C@@H](C(=O)N[C@H](C)c4ccccc4)N(C(=O)[C@@H](NC(=O)[C@H](C)NC)C(C)(C)C)C3)c2)C[C@H]1C(=O)N[C@H](C)c1ccccc1)C(C)(C)C` [Compound P3-50], for which the IC50 worked out at 0.063 µM.
On to `CC[C@@H](C)C(=O)N[C@H](C(=O)N1C[C@@H](NC(=O)c2cccc(C(=O)N[C@H]3C[C@@H](C(=O)NC(c4ccccc4)c4ccccc4)N(C(=O)[C@@H](NC(=O)[C@H](C)NC)C(C)(C)C)C3)c2)C[C@H]1C(=O)NC(c1ccccc1)c1ccccc1)C(C)(C)C` [Compound P3-51], for which the IC50 was determined as 0.026 µM.
On the same count and under the same terms, to `CN[C@@H](C)C(=O)N[C@H](C(=O)N1C[C@@H](NC(=O)c2cc(N)cc(C(=O)N[C@H]3C[C@@H](C(=O)N[C@H](C)c4ccccc4)N(C(=O)[C@@H](NC(=O)[C@H](C)NC)C(C)(C)C)C3)c2)C[C@H]1C(=O)N[C@H](C)c1ccccc1)C(C)(C)C` [Compound P3-52] belongs 0.044 µM; to `CN[C@@H](C)C(=O)N[C@H](C(=O)N1C[C@@H](NC(=O)c2cccc(C(=O)N[C@H]3C[C@@H](C(=O)N[C@@H]4CCCc5ccccc54)N(C(=O)[C@@H](NC(=O)[C@H](C)NC)C4CCCCC4)C3)c2)C[C@H]1C(=O)N[C@@H]1CCCc2ccccc21)C1CCCCC1` [Compound P3-53], 0.01 µM; to `CN[C@@H](C)C(=O)N[C@H](C(=O)N1C[C@@H](NC(=O)c2cc(N)cc(C(=O)N[C@H]3C[C@@H](C(=O)N[C@@H]4CCCc5ccccc54)N(C(=O)[C@@H](NC(=O)[C@H](C)NC)C4CCCCC4)C3)c2)C[C@H]1C(=O)N[C@@H]1CCCc2ccccc21)C1CCCCC1` [Compound P3-54], 0.051 µM.
Same read-out and setting: to `CN[C@@H](C)C(=O)N[C@H](C(=O)N1C[C@@H](NC(=O)c2cccc(C(=O)N[C@H]3C[C@@H](C(=O)N[C@@H]4CCCc5ccccc54)N(C(=O)[C@@H](NC(=O)[C@H](C)NC)C(C)C)C3)c2)C[C@H]1C(=O)N[C@@H]1CCCc2ccccc21)C(C)C` [Compound P3-55] belongs 0.017 µM; to `CN[C@@H](C)C(=O)N[C@H](C(=O)N1C[C@@H](NC(=O)c2cc(N)cc(C(=O)N[C@H]3C[C@@H](C(=O)N[C@@H]4CCCc5ccccc54)N(C(=O)[C@@H](NC(=O)[C@H](C)NC)C(C)C)C3)c2)C[C@H]1C(=O)N[C@@H]1CCCc2ccccc21)C(C)C` [Compound P3-56], 0.091 µM; to `CN[C@@H](C)C(=O)N[C@H](C(=O)N1C[C@@H](NC(=O)c2cc(N)cc(C(=O)N[C@H]3C[C@@H](C(=O)NC4c5ccccc5-c5ccccc54)N(C(=O)[C@@H](NC(=O)[C@H](C)NC)C(C)(C)C)C3)c2)C[C@H]1C(=O)NC1c2ccccc2-c2ccccc21)C(C)(C)C` [Compound P3-61], 0.02 µM.
On the same count and under the same terms, the figure for `C#CC[C@H](NC(=O)[C@H](C)NC)C(=O)N1C[C@@H](NC(=O)c2cc(N)cc(C(=O)N[C@H]3C[C@@H](C(=O)N[C@@H]4CCCc5ccccc54)N(C(=O)[C@H](CC#C)NC(=O)[C@H](C)NC)C3)c2)C[C@H]1C(=O)N[C@@H]1CCCc2ccccc21` [Compound P3-62] is 0.198 µM; for `CN[C@@H](C)C(=O)N[C@H](C(=O)N1C[C@@H](NC(=O)c2cc(C(=O)N[C@H]3C[C@@H](C(=O)NC4c5ccccc5-c5ccccc54)N(C(=O)[C@@H](NC(=O)[C@H](C)NC)C(C)(C)C)C3)[nH]n2)C[C@H]1C(=O)NC1c2ccccc2-c2ccccc21)C(C)(C)C` [Compound P3-63] it is 0.016 µM; for `CN[C@@H](C)C(=O)N[C@H](C(=O)N1C[C@@H](NC(=O)c2cc(C(=O)N[C@H]3C[C@@H](C(=O)NC(c4ccccc4)c4ccccc4)N(C(=O)[C@@H](NC(=O)[C@H](C)NC)C(C)(C)C)C3)[nH]n2)C[C@H]1C(=O)NC(c1ccccc1)c1ccccc1)C(C)(C)C` [Compound P3-64] it is 0.008 µM.
Regarding `CN[C@@H](C)C(=O)N[C@H](C(=O)N[C@@H](CCCCCC[C@H](NC(=O)[C@@H](NC(=O)[C@H](C)NC)C(C)(C)C)C(=O)N[C@@H]1CCCc2ccccc21)C(=O)N[C@@H]1CCCc2ccccc21)C(C)(C)C` [Compound P3-65], the IC50 was found to be 0.002 µM.
Take `CN[C@@H](C)C(=O)N[C@H](C(=O)N1C[C@@H](NC(=O)C[C@H](NC(=O)OCC2c3ccccc3-c3ccccc32)C(=O)N[C@H]2C[C@@H](C(=O)N[C@@H]3CCCc4ccccc43)N(C(=O)[C@@H](NC(=O)[C@H](C)NC)C(C)(C)C)C2)C[C@H]1C(=O)N[C@@H]1CCCc2ccccc21)C(C)(C)C` [Compound P3-66]: the IC50 came out at 0.258 µM.
Consider `CN[C@@H](C)C(=O)N[C@H](C(=O)N1C[C@@H](NC(=O)C[C@H](NC(C)=O)C(=O)N[C@H]2C[C@@H](C(=O)N[C@@H]3CCCc4ccccc43)N(C(=O)[C@@H](NC(=O)[C@H](C)NC)C(C)(C)C)C2)C[C@H]1C(=O)N[C@@H]1CCCc2ccccc21)C(C)(C)C` [Compound P3-67], for which the IC50 worked out at 0.214 µM.
In the case of `CC[C@H](C)C(NC(=O)[C@H](C)NC)C(=O)N1C[C@@H](NC(=O)c2cccc(C(=O)N[C@H]3C[C@@H](C(=O)N(C)[C@H](C)c4ccccc4)N(C(=O)C(NC(=O)[C@H](C)NC)[C@@H](C)CC)C3)c2)C[C@H]1C(=O)N(C)C(C)c1ccccc1` (stereo partly drawn) [Compound P3-68], the IC50 amounted to 0.025 µM.
For the molecule `CC[C@H](C)[C@H](NC(=O)[C@H](C)NC)C(=O)N1C[C@@H](NC(=O)c2cc(C(=O)N[C@H]3C[C@@H](C(=O)N[C@H](C)c4ccccc4)N(C(=O)[C@@H](NC(=O)[C@H](C)NC)[C@@H](C)CC)C3)[nH]n2)C[C@H]1C(=O)N[C@H](C)c1ccccc1` [Compound P3-69], the IC50 amounted to 0.017 µM.
Regarding `CN[C@@H](C)C(=O)N[C@H](C(=O)N1C[C@@H](NC(=O)c2cc(N)cc(C(=O)N[C@H]3C[C@@H](C(=O)NCc4ccc(F)cc4)N(C(=O)[C@@H](NC(=O)[C@H](C)NC)C(C)(C)C)C3)c2)C[C@H]1C(=O)NCc1ccc(F)cc1)C(C)(C)C` [Compound P3-71], the IC50 stood at 0.035 µM.
Turning to `CN[C@@H](C)C(=O)N[C@H](C(=O)N1C[C@@H](NC(=O)c2cc(C(=O)N[C@H]3C[C@@H](C(=O)NCc4ccc(F)cc4)N(C(=O)[C@@H](NC(=O)[C@H](C)NC)C(C)(C)C)C3)[nH]n2)C[C@H]1C(=O)NCc1ccc(F)cc1)C(C)(C)C` [Compound P3-72], the IC50 amounted to 0.023 µM.
The same measure, in the same setting: the figure for `CN[C@@H](C)C(=O)N[C@H](C(=O)N1C[C@@H](NC(=O)c2cc(OC)cc(C(=O)N[C@H]3C[C@@H](C(=O)N[C@H](C)c4ccccc4)N(C(=O)[C@@H](NC(=O)[C@H](C)NC)C(C)(C)C)C3)c2)C[C@H]1C(=O)N[C@H](C)c1ccccc1)C(C)(C)C` [Compound P3-73] is 0.075 µM; for `CC[C@H](C)C(NC(=O)[C@H](C)NC)C(=O)N1C[C@@H](NC(=O)c2cc(OC)cc(C(=O)N[C@H]3C[C@@H](C(=O)N[C@H](C)c4ccccc4)N(C(=O)C(NC(=O)[C@H](C)NC)[C@@H](C)CC)C3)c2)C[C@H]1C(=O)NC(C)c1ccccc1` (stereo partly drawn) [Compound P3-74] it is 0.072 µM.
As for `CN[C@@H](C)C(=O)N[C@H](C(=O)N1C[C@@H](NC(=O)/C=C/C(=O)N[C@H]2C[C@@H](C(=O)N[C@H](C)c3ccccc3)N(C(=O)[C@@H](NC(=O)[C@H](C)NC)C(C)(C)C)C2)C[C@H]1C(=O)N[C@H](C)c1ccccc1)C(C)(C)C` [Compound P3-75], the IC50 came out at 0.057 µM.
For the molecule `CC[C@H](C)[C@H](NC(=O)[C@H](C)NC)C(=O)N1C[C@@H](NC(=O)/C=C/C(=O)N[C@H]2C[C@@H](C(=O)N[C@H](C)c3ccccc3)N(C(=O)[C@@H](NC(=O)[C@H](C)NC)[C@@H](C)CC)C2)C[C@H]1C(=O)N[C@H](C)c1ccccc1` [Compound P3-76], the IC50 worked out at 0.036 µM.
On to `CN[C@@H](C)C(=O)N[C@H](C(=O)N1C[C@@H](NC(=O)c2cccc(C(=O)N[C@H]3C[C@@H](C(=O)N[C@H](C)c4ccccc4)N(C(=O)[C@@H](NC(=O)[C@H](C)NC)C4CCCCC4)C3)c2)C[C@H]1C(=O)N[C@H](C)c1ccccc1)C1CCCCC1` [Compound P3-77], for which the 50% inhibitory concentration (IC50) was 0.014 µM.

The assay is the same for the next values; noted with them: HCC461 cells, compound alone; read-out: IC50 (uM) in cell viability assay in HCC461.
`CN[C@@H](C)C(=O)N[C@H](C(=O)N1C[C@@H](NC(=O)C2CCCC(C(=O)N[C@H]3C[C@@H](C(=O)N[C@H](C)C4CCCCC4)N(C(=O)[C@@H](NC(=O)[C@H](C)NC)C(C)(C)C)C3)C2)C[C@H]1C(=O)N[C@H](C)C1CCCCC1)C(C)(C)C` (stereo partly drawn) [Compound P3-47]: the IC50 turned out to be 0.022 µM.
For the molecule `CN[C@@H](C)C(=O)N[C@H](C(=O)N1C[C@@H](NC(=O)c2cccc(C(=O)N[C@H]3C[C@@H](C(=O)NC4CCCC5CCCCC54)N(C(=O)[C@@H](NC(=O)[C@H](C)NC)C(C)(C)C)C3)c2)C[C@H]1C(=O)NC1CCCC2CCCCC21)C(C)(C)C` (stereo partly drawn) [Compound P3-57], the IC50 was found to be 1.69 µM.
Same read-out and setting: to `CN[C@@H](C)C(=O)N[C@H](C(=O)N1C[C@@H](NC(=O)c2cccc(C(=O)N[C@H]3C[C@@H](C(=O)NC4CCCC5CCCCC54)N(C(=O)[C@@H](NC(=O)[C@H](C)NC)C(C)(C)C)C3)c2)C[C@H]1C(=O)NC1CCCC2CCCCC21)C(C)(C)C` (stereo partly drawn) [Compound P3-58] belongs 0.211 µM; to `CN[C@@H](C)C(=O)N[C@H](C(=O)N1C[C@@H](NC(=O)c2cccc(C(=O)N[C@H]3C[C@@H](C(=O)NC4CCCC5CCCCC54)N(C(=O)[C@@H](NC(=O)[C@H](C)NC)C(C)(C)C)C3)c2)C[C@H]1C(=O)NC1CCCC2CCCCC21)C(C)(C)C` (stereo partly drawn) [Compound P3-59], 0.45 µM.
Same read-out and setting: the figure for `CN[C@@H](C)C(=O)N[C@H](C(=O)N1C[C@@H](NC(=O)c2cccc(C(=O)N[C@H]3C[C@@H](C(=O)NC4CCCC5CCCCC54)N(C(=O)[C@@H](NC(=O)[C@H](C)NC)C(C)(C)C)C3)c2)C[C@H]1C(=O)NC1CCCC2CCCCC21)C(C)(C)C` (stereo partly drawn) [Compound P3-60] is 0.311 µM.
